# Assay results as given in article PMC2770649 (Nucleic Acids Research, 2009).
# pIC50: −log10 of the molar value.
# Key:
# human DNA pol β = human DNA pol β (Homo sapiens, UniProt P06746); assay: Reporter-strand displacement assay, 1536-well format, pol β; format: biochemical; details: IC50 against pol β, approximate value
# human DNA pol ι = molecular target: T1, human DNA pol ι (Homo sapiens, UniProt Q9UNA4); assay: Reporter-strand displacement assay, 1536-well format, pol ι; format: biochemical; details: IC50 against pol ι, approximate value
# T1 sequence (Q9UNA4 1-740): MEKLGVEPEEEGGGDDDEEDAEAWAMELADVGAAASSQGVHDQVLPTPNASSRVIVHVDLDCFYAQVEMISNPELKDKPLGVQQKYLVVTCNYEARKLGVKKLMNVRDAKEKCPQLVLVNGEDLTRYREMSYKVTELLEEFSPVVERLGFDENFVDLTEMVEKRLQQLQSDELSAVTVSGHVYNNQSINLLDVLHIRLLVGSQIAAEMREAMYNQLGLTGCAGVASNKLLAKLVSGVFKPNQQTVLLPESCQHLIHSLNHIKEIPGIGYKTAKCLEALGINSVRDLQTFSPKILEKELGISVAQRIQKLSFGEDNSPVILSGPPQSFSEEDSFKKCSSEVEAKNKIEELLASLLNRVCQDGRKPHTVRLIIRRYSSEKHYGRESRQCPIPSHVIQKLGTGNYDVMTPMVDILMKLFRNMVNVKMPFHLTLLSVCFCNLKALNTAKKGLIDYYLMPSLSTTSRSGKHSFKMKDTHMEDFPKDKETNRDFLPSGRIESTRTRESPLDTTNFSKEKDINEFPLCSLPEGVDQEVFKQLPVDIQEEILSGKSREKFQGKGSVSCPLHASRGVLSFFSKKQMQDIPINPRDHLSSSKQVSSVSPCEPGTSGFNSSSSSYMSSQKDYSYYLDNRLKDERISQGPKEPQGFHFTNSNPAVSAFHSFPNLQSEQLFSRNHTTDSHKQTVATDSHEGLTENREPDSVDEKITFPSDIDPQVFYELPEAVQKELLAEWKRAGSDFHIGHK
pIC50 (human DNA pol β),pIC50 (human DNA pol ι),Compound
~7.70,~7.05,O=c1oc2c(O)c(O)cc3c(=O)oc4c(O)c(O)cc1c4c23 [Ellagic acid]
~7.70,~7.05,O=C(O)C1=CC(=C(c2ccc(O)c(C(=O)O)c2)c2ccc(O)c(C(=O)O)c2)C=CC1=O [Aurintricarboxylic acid]
